In patent US10131663B2, “Chemical compounds” (AstraZeneca AB, priority 2016, dated 2018):
In brackets after ≈: the same amount, converted by molar mass. Read-outs that look alike come from different tables or passages of the source.

Assays:
[1] = Thermodynamic solubility (shake-flask); type: physicochemical; settings: aqueous phosphate buffer, 25 °C, pH 7.4, aqueous buffer, thermodynamic from solid, aqueous phosphate buffer pH 7.4, 24 hours
Method: The thermodynamic solubility of a research compound is measured under standard conditions. It is a shake-flask approach that uses 10 mM DMSO solutions which are supplied from the Compound Managements liquid store and is a high throughput method. The dried compounds are equilibrated in an aqueous phosphate buffer (pH 7.4) for 24 hours at 25° C., the portion with the dissolved compound is then separated from the remains. The solutions are analyzed and quantified using UPLC/MS/MS, QC-samples are incorporated in each assay-run to ensure the quality of the assay.

[2] = log D (shake flask, 1-octanol/aqueous buffer); type: physicochemical
Source text: The lipophilicity of a drug is an important physical property which may influence many biological and metabolic properties of a compound, for example the absorption, distribution, metabolism, excretion and toxicity profiles of a compound. The distribution coefficient between 1-octanol and aqueous buffer, Log DO/W, at pH 7.4, is the most commonly used measurement of the lipophilicity of a compound. The current method for measurement of Log DO/W is based on the traditional shake flask technique, but with the modification of measuring compounds in mixtures of ten at a time using UPLC with quantitative mass spectrometry (MS) as a method to measure the relative octanol and aqueous concentrations. […] An additional QC sample Caffeine, with low Log D, are used and randomly placed in all runs. The method has been thoroughly validated against the previous shake flask methodologies.

[3] = Human Caco-2 bidirectional permeability A to B and B to A; type: in vitro ADME; settings: for Papp at 2 h: Caco-2, 2 hours, pH 7.4; for efflux ratio at 2 h: Caco-2, pH 7.4
Method: An automated assay was used to determine the bidirectional permeability (efflux and uptake) of compounds in Caco-2 cells carried out over 2 hours at pH 7.4.
The efflux ratio (ER) can be determined using the following equation: ER=Papp(B-A)/Papp(A-B) Where Papp (B-A) indicates the apparent permeability coefficient in basolateral to apical direction, and Papp (A-B) indicates the apparent permeability coefficient in apical to basolateral direction. Human Caco-2 Passive Permeability A to B Papp

[4] = biological target: recombinant human Estrogen Receptor alpha ligand binding domain (ER alpha-LBD (GST)) (Homo sapiens (Human), UniProt P03372); assay: ERα binding assay (LanthaScreen TR-FRET competition)
recombinant human Estrogen Receptor alpha ligand binding domain (ER alpha-LBD (GST)), sequence (P03372 307-554): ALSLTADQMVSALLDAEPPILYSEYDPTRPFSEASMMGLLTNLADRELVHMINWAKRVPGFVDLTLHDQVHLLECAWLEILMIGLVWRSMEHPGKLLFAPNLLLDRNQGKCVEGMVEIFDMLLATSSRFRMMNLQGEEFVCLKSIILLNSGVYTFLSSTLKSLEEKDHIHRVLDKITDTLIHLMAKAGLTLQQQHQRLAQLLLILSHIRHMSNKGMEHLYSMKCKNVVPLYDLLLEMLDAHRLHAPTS
Method: The ability of compounds to bind to isolated Estrogen Receptor Alpha Ligand binding domain (ER alpha-LBD (GST)) was assessed in competition assays using a LanthaScreen™ Time-Resolved Fluorescence Resonance Energy Transfer (TR-FRET) detection end-point. […] The assay principle is that ER alpha-LBD (GST) is added to a fluorescent ligand to form a receptor/fluorophore complex. A terbium-labelled anti-GST antibody (Product code PV3551) is used to indirectly label the receptor by binding to its GST tag, and competitive binding is detected by a test compound's ability to displace the fluorescent ligand, resulting in a loss of TR-FRET signal between the Tb-anti-GST antibody and the tracer. The assay was performed as follows with all reagent additions carried out using the Beckman Coulter BioRAPTR FRD microfluidic workstation: • 1. Acoustic dispense 120 nL of the test compound into a black low volume 384 well assay plates. • 2. Prepare 1×ER alpha-LBD/Tb-antiGST Ab in ES2 screening buffer and incubate for 15 minutes. • 3. Dispense 6 μL of the 1×[…]/Tb-anti-GST Ab reagent into each well of the assay plate followed by 6 μL of Fluorophore reagent into each well of the assay plate • 4. Cover the assay plate to protect the reagents from light and evaporation, and incubate at room temperature for 4 hours. • 5.
TR-FRET dose response data obtained with each compound was exported into a suitable software package (such as Origin or Genedata) to perform curve fitting analysis. Competitive ER alpha binding was expressed as an IC50 value.

[5] = biological target: Estrogen Receptor (ERα) in MCF-7 cells (Homo sapiens (Human), UniProt P03372); assay: MCF-7 ER down-regulation assay (immuno-fluorescence); type: cell-based
Estrogen Receptor (ERα) in MCF-7 cells, sequence (P03372 whole entry): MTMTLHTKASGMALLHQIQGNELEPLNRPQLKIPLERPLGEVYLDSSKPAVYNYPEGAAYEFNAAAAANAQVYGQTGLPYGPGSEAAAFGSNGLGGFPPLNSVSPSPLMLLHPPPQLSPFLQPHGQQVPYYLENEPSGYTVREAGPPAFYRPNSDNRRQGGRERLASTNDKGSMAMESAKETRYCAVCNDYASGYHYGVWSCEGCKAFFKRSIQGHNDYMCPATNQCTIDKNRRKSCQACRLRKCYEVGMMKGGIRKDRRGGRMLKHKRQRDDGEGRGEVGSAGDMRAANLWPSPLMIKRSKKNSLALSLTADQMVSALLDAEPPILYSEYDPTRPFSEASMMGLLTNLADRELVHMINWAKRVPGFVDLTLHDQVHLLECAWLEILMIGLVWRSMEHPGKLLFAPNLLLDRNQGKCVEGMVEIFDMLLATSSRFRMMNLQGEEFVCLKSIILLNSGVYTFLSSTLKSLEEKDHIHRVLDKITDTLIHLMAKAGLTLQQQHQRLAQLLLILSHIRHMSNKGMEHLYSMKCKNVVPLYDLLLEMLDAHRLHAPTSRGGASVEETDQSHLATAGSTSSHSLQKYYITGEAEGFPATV
Method: The Echo uses acoustic technology to perform direct microplate-to-microplate transfers of DMSO compound solutions to assay plates. […] Cells were fixed at room temperature for 20 mins before being washed two times with 250 μL PBS/Proclin (PBS with a Biocide preservative) using a BioTek platewasher, 40 μL of PBS/Proclin was then added to all wells and the plates stored at 4° C. The fixing method described above was carried out on the Integrated Echo 2 workcell. Immunostaining was performed using an automated AutoElisa workcell. […] The plates were incubated overnight at 4° C. […] The mean total intensity was normalized for cell number giving the total intensity per cell. The data was exported into a suitable software package (such as Origin) to perform curve fitting analysis.

[6] = Human plasma protein binding (equilibrium dialysis); type: in vitro ADME; settings: dialysis 18 hours
Method: The automated equilibrium dialysis assay in human plasma uses the RED (Rapid Equilibrium Dialysis) Device and sample handling. The assay generally runs over two to three days including delivery of results. After dialysis for 18 hours, plasma and buffer samples are prepared for analysis by liquid chromatography and mass spectrometry. Samples are generally tested in singlicates and quantified by LC/MSMS by using a 7-point calibration curve in plasma. The compounds are pooled together in plasma pools up to 10 compounds. Three reference compounds are used in each run, Propranolol, Metoprolol and Warfarin. Warfarin is used as a control in each pool and Propranolol and Metoprolol are placed randomly in each run. An in-house Excel macro is used for preparation of files for the robot and the mass spectrometer and is also used for the calculations of fraction unbound (fu %) in plasma.

[7] = biological target: hERG potassium channel (Homo sapiens (Human), UniProt Q12809); assay: hERG binding assay (automated patch clamp, CHO cells); type: cell-based; settings: CHO cell line, Nanion Syncropatch 384PE
hERG potassium channel, sequence (Q12809 whole entry): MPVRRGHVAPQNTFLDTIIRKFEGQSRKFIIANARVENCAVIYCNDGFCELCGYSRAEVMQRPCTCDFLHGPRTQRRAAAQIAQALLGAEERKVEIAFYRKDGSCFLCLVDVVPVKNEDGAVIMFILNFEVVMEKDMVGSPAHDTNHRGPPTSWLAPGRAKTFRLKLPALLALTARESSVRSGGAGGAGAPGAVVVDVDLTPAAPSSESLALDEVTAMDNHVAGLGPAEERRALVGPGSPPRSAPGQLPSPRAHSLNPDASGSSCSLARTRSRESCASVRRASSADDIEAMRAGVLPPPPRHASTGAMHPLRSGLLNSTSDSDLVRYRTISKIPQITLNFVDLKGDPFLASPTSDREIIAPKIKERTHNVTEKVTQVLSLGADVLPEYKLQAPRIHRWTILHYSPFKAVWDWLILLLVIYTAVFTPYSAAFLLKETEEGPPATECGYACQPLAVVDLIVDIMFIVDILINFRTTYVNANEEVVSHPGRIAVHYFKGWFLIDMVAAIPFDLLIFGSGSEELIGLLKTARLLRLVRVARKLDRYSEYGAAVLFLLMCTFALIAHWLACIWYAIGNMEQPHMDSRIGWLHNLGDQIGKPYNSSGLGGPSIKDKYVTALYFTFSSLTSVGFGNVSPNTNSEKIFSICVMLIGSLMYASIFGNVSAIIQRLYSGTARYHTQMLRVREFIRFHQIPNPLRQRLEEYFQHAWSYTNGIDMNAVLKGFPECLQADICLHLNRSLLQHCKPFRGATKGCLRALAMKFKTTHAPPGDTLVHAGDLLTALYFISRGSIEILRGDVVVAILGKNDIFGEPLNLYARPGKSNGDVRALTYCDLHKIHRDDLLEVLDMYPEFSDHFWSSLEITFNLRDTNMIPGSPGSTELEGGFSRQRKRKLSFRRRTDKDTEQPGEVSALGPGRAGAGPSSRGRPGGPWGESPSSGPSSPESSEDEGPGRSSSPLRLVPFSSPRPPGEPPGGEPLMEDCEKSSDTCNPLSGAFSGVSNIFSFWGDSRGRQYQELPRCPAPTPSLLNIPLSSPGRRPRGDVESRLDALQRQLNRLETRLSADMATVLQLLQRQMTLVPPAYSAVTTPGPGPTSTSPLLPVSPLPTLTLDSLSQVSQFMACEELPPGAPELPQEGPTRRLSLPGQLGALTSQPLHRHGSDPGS
Method: Reagent preparations include: • 1.
Cell preparations: • 1. If using cell culture; cells to be incubated at 30° C. for approximately 4-6 days prior to being used. Day of assay lift cells using accutase and re-suspend in 20 ml cell buffer to a density of 0.8 to 1e6 cells/ml. • 2. If using assay ready cryovials; rapidly thaw two cryovials at 37° C. and slowly pipette into 23 ml external solution • 3.
All compounds were acoustically dispensed in quadruplicate using a Labcyte Echo. […] Fill 384 well medium resistance 4 hole chips with 40 μl external buffer and perfuse internal buffer to the underside of plate. • 2. Dispense 20 μl of cells into each well of the chip followed by 20 μl of seal enhancer. • 3. Remove 40 μl of reagent from each well to the wash station, leaving a residual volume of 40 μl • 4. Dispense 40 μl of reference buffer with a removal step of 40 μl after 3 min, repeat this step. • 5.
hERG-mediated currents were elicited using a voltage step protocol consisting of acontinuous holding voltage of −80 mV, with a 500 ms step to 60 mV followed by a 500 ms step to −40 mV every 15 seconds. hERG current magnitude was measured automatically from the leak-subtracted traces by the Nanion software by taking the peak of the hERG “tail” current at −40 mV every 15 seconds and taking the last three of these responses for each concentration to generate the concentration-effect curve.
Calculation of results is performed using APC package within Genedata. For the routine normalization of well data with Neutral and Inhibitor control well groups as reference, GeneData Assay Analyzer uses the following equation to normalize the signal values to the desired signal range:
[formula] • x is the measured raw signal value of a well • is the median of the measured signal values for the Central Reference (Neutral) wells on a plate • is the median of the measured signal values for the Scale Reference (Inhibitor) wells on a plate • CR is the desired median normalized value for the Central Reference (Neutral) • SR is the desired median normalized value for the Scale Reference (Inhibitor)

[8] = 1-octanol/aqueous buffer, pH 7.4, pH 7.4, 1-octanol/aqueous buffer
[9] = TR-FRET, displacement of Fluormone ES2
[10] = pH 7.4, 1-octanol/aqueous buffer

SMILES	solubility at 24 h [1] [µM]	logD [2, 8]	Papp at 2 h [3] [×10⁻⁶ cm/s]	efflux ratio at 2 h [3]	IC50 [4, 9] [nM]	IC50 [5] [nM]	Human plasma protein binding (% free) [6] [% free]	logD [2, 10]	IC50 [4] [nM]	IC50 [7] [nM]
C[C@@H]1Cc2c(ccc3[nH]ncc23)[C@@H](c2ccc(NC3CN(CCCF)C3)c(F)n2)N1CC(F)F [Example 47, 6-((6S,8R)-7-(2,2-difluoroethyl)-8-methyl-6,7,8,9-tetrahydro-3H-pyrazolo[4,3-f]isoquinolin-6-yl)-2-fluoro-N-(1-(3-fluoropropyl)azetidin-3-yl)pyridin-3-amine]	> 1000	2.6	18	1.1	1.2	0.41				
C[C@@H]1Cc2c(ccc3[nH]ncc23)[C@@H](c2ncc(NC3CN(CCCF)C3)cc2F)N1CC(F)(F)CO [Example 31, 2,2-Difluoro-3-((6S,8R)-6-(3-fluoro-5-((1-(3-fluoropropyl)azetidin-3-yl)amino)pyridin-2-yl)-8-methyl-3,6,8,9-tetrahydro-7H-pyrazolo[4,3-f]isoquinolin-7-yl)propan-1-ol]	> 942	2	0.9				44			
COc1cc(NC2CN(CCCF)C2)ccc1[C@@H]1c2ccc3[nH]ncc3c2C[C@@H](C)N1CC(F)(F)CO [Example 60, 2,2-difluoro-3-((6S,8R)-6-(4-((1-(3-fluoropropyl)azetidin-3-yl)amino)-2-methoxyphenyl)-8-methyl-3,6,8,9-tetrahydro-7H-pyrazolo[4,3-f]isoquinolin-7-yl)propan-1-ol]	593 (≈ 307 µg/mL)		0.7	34		0.19	23	2.5	4.7	11000
COc1cc(N(C)C2CN(CCCF)C2)ccc1[C@@H]1c2ccc3[nH]ncc3c2C[C@@H](C)N1CC1(F)CC1 [Example 52, N-(4-((6S,8R)-7-((1-fluorocyclopropyl)methyl)-8-methyl-6,7,8,9-tetrahydro-3H-pyrazolo[4,3-f]isoquinolin-6-yl)-3-methoxyphenyl)-1-(3-fluoropropyl)-N-methylazetidin-3-amine]	864 (≈ 440 µg/mL)	3			11	0.21	19			2000
C[C@@H]1Cc2c(ccc3[nH]ncc23)[C@@H](c2ccc(NC3CN(CCCF)C3)c(F)c2)N1CC(F)(F)F [Example 41, N-(2-fluoro-4-((6R,8R)-8-methyl-7-(2,2,2-trifluoroethyl)-6,7,8,9-tetrahydro-3H-pyrazolo[4,3-f]isoquinolin-6-yl)phenyl)-1-(3-fluoropropyl)azetidin-3-amine]	120 (≈ 59.2 µg/mL)	4.1			2.4	0.17	2.2			6500
COc1cc(NC2CN(CCCF)C2)ccc1[C@]1(C)c2ccc3[nH]ncc3c2C[C@@H](C)N1CC(F)F [Example 45, N-(4-((6S,8R)-7-(2,2-difluoroethyl)-6,8-dimethyl-6,7,8,9-tetrahydro-3H-pyrazolo[4,3-f]isoquinolin-6-yl)-3-methoxyphenyl)-1-(3-fluoropropyl)azetidin-3-amine]	172 (≈ 86.3 µg/mL)	3.9			1.6	0.3	6.2			4200
C[C@@H]1Cc2c(ccc3[nH]nc(F)c23)[C@@H](c2ccc(NC3CN(CCCF)C3)cn2)N1CC(F)(F)CO [Example 61, 2,2-difluoro-3-((6S,8R)-1-fluoro-6-(5-((1-(3-fluoropropyl)azetidin-3-yl)amino)pyridin-2-yl)-8-methyl-3,6,8,9-tetrahydro-7H-pyrazolo[4,3-f]isoquinolin-7-yl)propan-1-ol]	848 (≈ 430 µg/mL)	2.7			0.88	0.13	29			> 40000
CC1(C)Cc2c(ccc3[nH]ncc23)[C@@H](c2ccc(NC3CN(CCCF)C3)cn2)N1CC(F)F [Example 73, (S)-6-(7-(2,2-difluoroethyl)-8,8-dimethyl-6,7,8,9-tetrahydro-3H-pyrazolo[4,3-f]isoquinolin-6-yl)-N-(1-(3-fluoropropyl)azetidin-3-yl)pyridin-3-amine]	925 (≈ 437 µg/mL)				3.4	0.77	22	3		12000
